Reference: patent US20230038929A1, “Fused Tricyclic Heterocyclic Compounds and Uses Thereof” (Verge Analytics, Inc., priority 2019, published 2023)
Counter-ions that a name gives are not always drawn.

Key:
[1] = target: T1, Full length human recombinant PIKFYVE (Homo sapiens, UniProt Q9Y2I7, L932S/Q1183K/Q995L/S1033A/S696N/T998S); test: Inhibition of PIKfyve (microfluidic electrophoresis kinase assay); format: biochemical; conditions: 2 nM enzyme, 1 μM PI3P, 3 h at room temperature, 12 concentrations; read-out: PIKfyve IC50
T1 construct: Full length human recombinant PIKFYVE; purchased Carna Biosciences (Kobe, Japan); host or cells: baculovirus expression system (insect cells)
T1 sequence (Q9Y2I7 whole entry S696N/L932S/Q995L/T998S/S1033A/Q1183K): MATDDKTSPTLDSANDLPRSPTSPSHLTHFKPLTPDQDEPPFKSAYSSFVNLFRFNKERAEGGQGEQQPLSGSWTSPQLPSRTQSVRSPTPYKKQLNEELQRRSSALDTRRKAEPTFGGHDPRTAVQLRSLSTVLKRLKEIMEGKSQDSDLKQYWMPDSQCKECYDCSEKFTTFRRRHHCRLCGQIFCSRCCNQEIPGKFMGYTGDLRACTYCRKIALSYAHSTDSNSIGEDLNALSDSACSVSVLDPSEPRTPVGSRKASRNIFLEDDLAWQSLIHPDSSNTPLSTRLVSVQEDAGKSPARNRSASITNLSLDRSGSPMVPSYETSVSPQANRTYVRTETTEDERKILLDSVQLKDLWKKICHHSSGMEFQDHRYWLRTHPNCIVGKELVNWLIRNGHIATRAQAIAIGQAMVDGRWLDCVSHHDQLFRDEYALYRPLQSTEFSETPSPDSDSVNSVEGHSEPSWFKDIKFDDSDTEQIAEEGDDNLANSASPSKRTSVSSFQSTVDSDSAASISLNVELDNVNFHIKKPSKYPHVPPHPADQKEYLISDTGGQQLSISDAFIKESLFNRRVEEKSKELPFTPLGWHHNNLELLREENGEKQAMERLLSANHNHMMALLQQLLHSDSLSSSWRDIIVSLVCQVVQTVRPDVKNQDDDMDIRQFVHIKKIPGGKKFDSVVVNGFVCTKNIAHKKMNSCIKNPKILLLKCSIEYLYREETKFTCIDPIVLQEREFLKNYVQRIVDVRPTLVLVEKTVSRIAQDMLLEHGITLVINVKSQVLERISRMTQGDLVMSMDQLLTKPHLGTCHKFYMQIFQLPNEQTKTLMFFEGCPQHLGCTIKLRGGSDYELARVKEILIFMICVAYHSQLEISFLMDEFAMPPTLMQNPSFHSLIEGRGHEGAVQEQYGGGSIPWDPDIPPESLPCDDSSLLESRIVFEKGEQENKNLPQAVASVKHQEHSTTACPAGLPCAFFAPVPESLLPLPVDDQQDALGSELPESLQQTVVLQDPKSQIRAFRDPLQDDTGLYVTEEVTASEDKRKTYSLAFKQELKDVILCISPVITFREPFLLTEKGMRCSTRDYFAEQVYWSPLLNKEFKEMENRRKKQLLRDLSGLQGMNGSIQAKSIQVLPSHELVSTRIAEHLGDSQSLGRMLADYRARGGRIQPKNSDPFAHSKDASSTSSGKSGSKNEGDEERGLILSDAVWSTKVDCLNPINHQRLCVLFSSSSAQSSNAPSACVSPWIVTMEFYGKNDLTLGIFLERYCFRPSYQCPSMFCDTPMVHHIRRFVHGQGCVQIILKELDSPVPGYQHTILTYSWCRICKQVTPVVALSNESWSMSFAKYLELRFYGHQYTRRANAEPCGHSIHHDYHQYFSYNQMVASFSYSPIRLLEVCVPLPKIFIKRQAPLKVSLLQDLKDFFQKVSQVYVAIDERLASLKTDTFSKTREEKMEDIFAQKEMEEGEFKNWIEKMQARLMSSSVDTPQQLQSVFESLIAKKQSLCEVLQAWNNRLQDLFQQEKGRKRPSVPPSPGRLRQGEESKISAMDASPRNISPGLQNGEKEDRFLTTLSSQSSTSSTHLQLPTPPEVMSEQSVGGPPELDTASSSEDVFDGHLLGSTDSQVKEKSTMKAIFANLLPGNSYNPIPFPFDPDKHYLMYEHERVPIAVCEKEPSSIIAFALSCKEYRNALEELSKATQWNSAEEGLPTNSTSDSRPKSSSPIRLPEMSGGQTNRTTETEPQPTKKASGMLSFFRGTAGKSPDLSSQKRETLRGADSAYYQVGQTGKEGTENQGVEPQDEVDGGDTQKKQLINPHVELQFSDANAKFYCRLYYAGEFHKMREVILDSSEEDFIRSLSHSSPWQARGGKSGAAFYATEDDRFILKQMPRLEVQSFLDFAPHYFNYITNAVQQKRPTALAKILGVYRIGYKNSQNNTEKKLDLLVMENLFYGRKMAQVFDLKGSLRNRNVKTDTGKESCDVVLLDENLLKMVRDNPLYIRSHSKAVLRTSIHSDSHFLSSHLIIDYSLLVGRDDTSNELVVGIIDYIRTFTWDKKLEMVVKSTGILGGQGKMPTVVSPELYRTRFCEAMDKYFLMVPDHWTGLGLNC
In short: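 GST-tagged full-length human PIKfyve (2 nM, baculovirus) with 1 μM fluorescent PI3P/PS substrate and […] in HEPES pH 7.5, Mg2+/Mn2+, 1% DMSO, 3 h at room temperature; 12 compound concentrations. PI(3,5)P product/substrate peaks resolved by microfluidic electrophoresis; IC50 from four-parameter fit of %-inhibition.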

PI3Kα (p110α/p85α) = target: T2, PI3Kα (p110α/p85α) (Homo sapiens, UniProt P42336); format: biochemical; conditions: 0.5 nM enzyme, ATP 90 μM, 1 μM PIP2, 3 h room temperature; read-out: PI3Kα IC50
T2 construct: Full-length N-terminal; FLAG (N); host or cells: SF9 cells (baculovirus)
T2 sequence (P42336 whole entry): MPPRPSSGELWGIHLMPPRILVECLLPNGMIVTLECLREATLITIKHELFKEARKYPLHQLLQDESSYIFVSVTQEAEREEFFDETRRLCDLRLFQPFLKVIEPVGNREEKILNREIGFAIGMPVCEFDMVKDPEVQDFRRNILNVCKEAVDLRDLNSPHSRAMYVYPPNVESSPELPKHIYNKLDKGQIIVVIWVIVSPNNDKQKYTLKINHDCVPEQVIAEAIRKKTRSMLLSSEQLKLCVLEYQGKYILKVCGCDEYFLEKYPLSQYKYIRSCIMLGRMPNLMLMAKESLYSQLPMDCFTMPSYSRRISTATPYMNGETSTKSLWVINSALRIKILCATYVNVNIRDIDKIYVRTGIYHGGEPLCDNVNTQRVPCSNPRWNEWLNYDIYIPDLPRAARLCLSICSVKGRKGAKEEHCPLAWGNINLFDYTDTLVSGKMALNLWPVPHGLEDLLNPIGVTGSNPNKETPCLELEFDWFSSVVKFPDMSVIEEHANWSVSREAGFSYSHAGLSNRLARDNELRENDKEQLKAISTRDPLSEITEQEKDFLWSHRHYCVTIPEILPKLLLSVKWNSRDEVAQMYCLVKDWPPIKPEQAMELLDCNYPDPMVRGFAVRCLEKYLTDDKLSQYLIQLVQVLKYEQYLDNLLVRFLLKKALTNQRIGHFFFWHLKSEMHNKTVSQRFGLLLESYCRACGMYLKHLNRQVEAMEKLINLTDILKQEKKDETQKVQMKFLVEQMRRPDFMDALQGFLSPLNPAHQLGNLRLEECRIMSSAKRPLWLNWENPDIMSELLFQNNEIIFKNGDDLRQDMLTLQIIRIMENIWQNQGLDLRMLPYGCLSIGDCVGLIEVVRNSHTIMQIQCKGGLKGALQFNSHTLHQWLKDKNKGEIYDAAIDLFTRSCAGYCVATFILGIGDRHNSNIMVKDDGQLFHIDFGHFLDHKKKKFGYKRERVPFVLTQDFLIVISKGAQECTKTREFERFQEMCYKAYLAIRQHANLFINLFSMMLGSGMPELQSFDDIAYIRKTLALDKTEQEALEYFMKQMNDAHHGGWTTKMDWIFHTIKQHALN
T2 sequence (P27986 whole entry, further chain): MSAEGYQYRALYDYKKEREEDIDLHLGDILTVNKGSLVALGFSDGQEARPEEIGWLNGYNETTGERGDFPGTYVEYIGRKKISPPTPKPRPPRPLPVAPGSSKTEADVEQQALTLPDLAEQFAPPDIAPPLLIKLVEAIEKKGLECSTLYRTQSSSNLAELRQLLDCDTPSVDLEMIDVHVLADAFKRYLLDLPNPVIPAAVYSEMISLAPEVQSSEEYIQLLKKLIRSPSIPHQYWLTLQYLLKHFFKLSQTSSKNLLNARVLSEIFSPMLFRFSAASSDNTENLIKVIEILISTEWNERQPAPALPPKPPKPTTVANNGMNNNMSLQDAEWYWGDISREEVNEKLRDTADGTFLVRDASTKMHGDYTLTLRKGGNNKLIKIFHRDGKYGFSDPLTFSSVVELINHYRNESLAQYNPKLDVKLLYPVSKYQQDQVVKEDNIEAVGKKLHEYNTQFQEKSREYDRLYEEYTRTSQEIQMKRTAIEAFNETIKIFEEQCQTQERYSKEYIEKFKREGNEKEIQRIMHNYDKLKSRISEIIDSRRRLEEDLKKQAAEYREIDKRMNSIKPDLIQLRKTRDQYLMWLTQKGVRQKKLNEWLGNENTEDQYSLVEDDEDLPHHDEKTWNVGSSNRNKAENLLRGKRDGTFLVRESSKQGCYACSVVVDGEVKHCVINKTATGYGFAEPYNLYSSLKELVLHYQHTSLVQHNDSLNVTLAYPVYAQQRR

PI3Kβ (p110β/p85α) = target: T3, PI3Kβ (p110β/p85α) (Homo sapiens, UniProt P42338); format: biochemical; conditions: 1 nM enzyme, ATP 60 μM, 1 μM PIP2, 3 h room temperature; read-out: PI3Kβ IC50
T3 construct: Full-length N-terminal GST-; GST (N); host or cells: SF9 cells (baculovirus)
T3 sequence (P42338 whole entry): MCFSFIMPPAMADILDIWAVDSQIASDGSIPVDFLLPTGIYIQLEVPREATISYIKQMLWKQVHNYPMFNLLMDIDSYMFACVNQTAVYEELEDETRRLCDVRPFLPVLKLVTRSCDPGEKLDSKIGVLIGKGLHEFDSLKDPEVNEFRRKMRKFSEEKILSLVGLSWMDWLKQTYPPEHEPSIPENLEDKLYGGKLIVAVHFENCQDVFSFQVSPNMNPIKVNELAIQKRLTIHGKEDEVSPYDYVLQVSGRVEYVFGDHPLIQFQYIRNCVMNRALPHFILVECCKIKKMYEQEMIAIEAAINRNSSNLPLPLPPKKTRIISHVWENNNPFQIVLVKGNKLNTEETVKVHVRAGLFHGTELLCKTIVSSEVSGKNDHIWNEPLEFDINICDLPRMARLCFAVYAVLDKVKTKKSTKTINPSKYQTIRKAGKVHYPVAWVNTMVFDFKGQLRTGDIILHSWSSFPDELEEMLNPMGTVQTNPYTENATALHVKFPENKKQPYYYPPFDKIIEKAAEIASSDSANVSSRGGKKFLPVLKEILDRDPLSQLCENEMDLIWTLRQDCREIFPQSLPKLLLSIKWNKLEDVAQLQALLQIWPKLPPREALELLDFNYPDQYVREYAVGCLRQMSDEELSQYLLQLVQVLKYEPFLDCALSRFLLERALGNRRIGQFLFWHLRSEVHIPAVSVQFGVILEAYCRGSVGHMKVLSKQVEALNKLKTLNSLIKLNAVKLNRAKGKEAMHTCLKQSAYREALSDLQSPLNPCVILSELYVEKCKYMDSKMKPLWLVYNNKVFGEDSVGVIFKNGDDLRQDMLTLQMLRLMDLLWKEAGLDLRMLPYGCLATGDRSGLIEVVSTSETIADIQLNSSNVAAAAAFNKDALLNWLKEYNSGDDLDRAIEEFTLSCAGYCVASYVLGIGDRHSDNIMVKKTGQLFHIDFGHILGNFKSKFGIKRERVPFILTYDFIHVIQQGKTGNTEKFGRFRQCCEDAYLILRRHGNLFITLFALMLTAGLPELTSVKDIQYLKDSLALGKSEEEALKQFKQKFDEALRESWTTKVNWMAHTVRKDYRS
T3 sequence (P27986 whole entry, further chain): as the sequence (P27986 whole entry, further chain) above

PI3Kδ (p110δ/p85α) = target: T4, PI3Kδ (p110δ/p85α) (Homo sapiens, UniProt O00329); format: biochemical; conditions: 0.25 nM enzyme, ATP 90 μM, 1 μM PIP2, 3 h room temperature; read-out: PI3Kδ IC50
T4 construct: Full-length N-terminal GST-; GST (N); host or cells: SF9 cells (baculovirus)

IPSC-C9 motor neurons = test: iPSC MN Survival assay (IPSC-C9); format: cell-based, human; conditions: maximal reduction in hazard ratio vs control at various concentrations; <1.0 increased survival, >1.0 decreased survival
[2] = system: ALS patient (SOD1 A4V) iPSC derived motor neurons; test: iPSC MN Survival assay (IPSC-SOD1); format: cell-based, human; conditions: nutrient deprived media (HBSS), six days, maximal reduction in hazard ratio, <1.0 increased survival
Protocol: Biological Example 4: iPSC MN Survival assay
Fibroblasts from ALS patients with known SOD1 A4V mutation were reprogrammed into inducible pluripotent stem cells (iPSC) and then differentiated to motor neurons. In culture, ALS patient derived motor neurons show increased death rate compared to motor neurons derived from healthy individuals in a stressed condition (nutrient deprived media, Hank's buffered salt solution—HBSS). […] Cell rescue was measured following more than two different concentrations of each compound for six days with greater than four replicates in a 96-well format to ensure studies with power >0.8. Cells are transduced with a GFP reporter and imaged once a day to track survival. A broad-spectrum caspase inhibitor served as the positive control.
Microscopy image-based readout: Cells are transduced with a GFP reporter and imaged once a day with a blue laser to track survival. Imagers used include the Biotek Cytation 5 and Thermo Fisher EVOS Auto FL 2. All Images undergo uniform processing consisting of rolling hat background subtraction and contrast adjustment. Microscopy images are analyzed using software proprietary to Verge. Cells are identified by their shape and each cell is tracked across images and time points for each well. Survival is visually assessed from the Kaplan-Meier curves. Survival of the cells is modeled and tested using a mixed effects Cox regression where each well is modeled as the random effect, and the group (control/treatment) as the fixed effect. […]. Data are presented in Table 7 as the maximal reduction in hazard ratio scores measured at various concentrations.

SMILES | IC50 [1] [nM] | IC50 (PI3Kα (p110α/p85α)) [nM] | IC50 (PI3Kβ (p110β/p85α)) [nM] | IC50 (PI3Kδ (p110δ/p85α)) [nM] | IPSC-C9 (Hazard Ratio) (IPSC-C9 motor neurons) | IPSC-SOD1 (Hazard Ratio) [2]
c1ccc(-c2cc(Nc3nc(N4CCOCC4)c4oc5ncccc5c4n3)[nH]n2)cc1 [Example 9, 4-Morpholino-N-(3-phenyl-1H-pyrazol-5-yl)pyrido[3′,2′:4,5]furo[3,2-d]pyrimidin-2-amine] | 23 | 144 | > 10000 | 75 | 0.65 | 0.81
c1cnc2oc3c(N4CCOCC4)nc(Nc4cc(-c5ccncc5)n[nH]4)nc3c2c1 [Example 10, 4-Morpholino-N-(3-(pyridin-4-yl)-1H-pyrazol-5-yl)pyrido[3′,2′:4,5]furo[3,2-d]pyrimidin-2-amine] | 185 | 117 | 1310 | 37 | 0.96 | 1.04
Cc1cc(N(C)c2nc(N3CCOCC3)c3oc4ncccc4c3n2)nn1C [Example 11, N-(1,5-Dimethyl-1H-pyrazol-3-yl)-N-methyl-4-morpholinopyrido[3′,2′:4,5]furo[3,2-d]pyrimidin-2-amine] | > 10000 | 244 | 7030 | 278 | 0.99 | 1.1
c1ccc(-c2cc(Nc3nc(N4CCOCC4)c4oc5ncc(CCN6CCCC6)cc5c4n3)[nH]n2)cc1 [Example 14, 4-Morpholino-N-(3-phenyl-1H-pyrazol-5-yl)-8-(2-(pyrrolidin-1-yl)ethyl)pyrido[3′,2′:4,5]furo[3,2-d]pyrimidin-2-amine] | 2320 |  |  |  | 0.9 | 0.96
c1ccc(Nc2nc(N3CCOCC3)c3oc4ncccc4c3n2)cc1 [Example 37, 4-morpholino-N-phenylpyrido[3′,2′:4,5]furo[3,2-d]pyrimidin-2-amine] | 439 | 67 | 1040 | 41 | 0.99 | 1.03
c1cnc2oc3c(N4CCOCC4)nc(Nc4cncnc4)nc3c2c1 [Example 43, 4-morpholino-N-(pyrimidin-5-yl)pyrido[3′,2′:4,5]furo[3,2-d]pyrimidin-2-amine] | > 10000 |  |  |  | 1.06 | 1.1
Cc1cc(Nc2nc(N3CCOCC3)c3oc4ncccc4c3n2)nn1C [Example 47, N-(1,5-dimethyl-1H-pyrazol-3-yl)-4-morpholinopyrido[3′,2′:4,5]furo[3,2-d]pyrimidin-2-amine] | 4320 | 82 | 2630 | 54 |  | 1.1
Cc1cccc(-c2cc(Nc3nc(N4CCOCC4)c4oc5ncccc5c4n3)[nH]n2)c1 [Example 49, 4-morpholino-N-(3-(m-tolyl)-1H-pyrazol-5-yl)pyrido[3′,2′:4,5]furo[3,2-d]pyrimidin-2-amine] | 38 |  |  |  | 1.2 | 1.03
c1cnc2oc3c(N4CCOCC4)nc(Nc4cc(CC5CCC5)n[nH]4)nc3c2c1 [Example 56, N-(3-(cyclobutylmethyl)-1H-pyrazol-5-yl)-4-morpholinopyrido[3′,2′:4,5]furo[3,2-d]pyrimidin-2-amine hydrochloride] | 1790 | 47 | 937 | 24 |  | 
Cl.c1cnc2oc3c(N4CCOCC4)nc(Nc4cc(-c5ccsc5)n[nH]4)nc3c2c1 [Example 61, 4-morpholino-N-(3-(thiophen-3-yl)-1H-pyrazol-5-yl)pyrido[3′,2′:4,5]furo[3,2-d]pyrimidin-2-amine hydrochloride] | 26 |  |  |  | 0.542 | 
